Measurements taken from paper PMC7822874, “Chemoprotective antimalarials identified through quantitative high-throughput screening of Plasmodium blood and liver stage parasites” (Scientific Reports, 2021).

Test system: Plasmodium falciparum Dd2 asexual blood stage parasites
Assay: microbe, parasite or virus in culture
Parameters: species or system Plasmodium falciparum Dd2 in human erythrocytes; single determination (one 11-point concentration-response curve)
Settings: Plasmodium falciparum, DD2, Erythrocyte, 72 h; read-out: AC50

SMILES | AC50
CC(=O)NCCNC[C@@H]1C=C(C)[C@H](Cc2nnc(-c3ccccc3)o2)C[C@H]1C(C)C [NCGC00395892-01] | 17.2 µM
COCC1CN(Cc2cccc(OC(F)(F)F)c2)CC12CCNCC2 (centres unmarked) [NCGC00461844-01] | 15 µM
COc1ccc(NC(=O)c2c(C)oc3ccc(O)c(CN4CCCCCC4)c23)cc1Cl [NCGC00115677-01] | 1.88 µM
Fc1cccc(CN2CCC(N3CC(OCC4CC4)C34CCCCC4)CC2)c1 (centres unmarked) [NCGC00463410-01] | 4.22 µM
CCCCCC(O)(c1ccc(OC)cc1)C(CN1CCOCC1)c1ccccc1 (centres unmarked) [MLS001198946-01] | 2.11 µM
CCn1ncc(CN2CCCC23CCN(c2cc(C)nc4ccccc24)CC3)c1C [NCGC00442843-01] | 5.31 µM
COc1cccc(Nc2ccc3c(n2)C(C)(C(=O)N2CCN(C)CC2)CN(C)C3)c1 (centres unmarked) [NCGC00414535-01] | 15.3 µM
O=c1c2c([nH]c3ccccc13)CCCC2 [MLS000551004-01] | 6.68 µM
COc1cc(=O)n2c(c1C(=O)Nc1ccc(N(C)C)cc1)CCCC2 [NCGC00435410-01] | 10.6 µM
COc1ccc2[nH]c(C)c(CCN(Cc3cccs3)C(S)=Nc3ccc(F)cc3)c2c1 [MLS000529849-01] | 4.22 µM
CCN(CC)c1cc(CCC(=O)NCCN(C)C2CCCCC2)ccn1 [NCGC00469386-01] | 13.3 µM
COc1ccc(-c2cn3c(n2)sc2cc(C(=O)NCCCN4CCCCC4)ccc23)cc1 [NCGC00121823-01] | 4.73 µM
Cc1cc(Nc2ccc(C)c(F)c2)n2ncnc2n1 [MLS000033310-01] | 9.44 µM
COc1ccc(OCC(=O)NCC2(N3CCN(C)CC3)CCCCC2)cc1 [NCGC00118575-01] | 1.88 µM
COc1ccc(C(=O)N2CCC3(CC2)OC(=O)N(Cc2ccc(O)cc2)C3(C)c2ccccc2)cn1 (centres unmarked) [NCGC00415507-01] | 6.68 µM
O=C(Nc1ccc(Cl)cc1)Nc1nc(-c2ccccc2O)cs1 [MLS000774885-01] | 6.68 µM

SMILES | AC50
COc1ccccc1Cc1nc2ccccc2nc1SCC(=O)NCc1ccccc1Cl [NCGC00133705-01] | 2.11 µM
COc1ccc2cc1Nc1ccc(cc1)C[C@H](NCc1ccc3c(c1)CCO3)C(=O)N(C)[C@H](C(=O)NCCC(C)C)C2 [NCGC00410296-01] | 3.35 µM
N#Cc1cccc(C(=O)N2CCCN(Cc3ccncc3)C(c3ccccc3)CC(=O)NCC2)c1 (centres unmarked) [NCGC00467150-01] | 7.5 µM
Cc1ccc2c(C)c(C(=O)N3CCCC3c3nc(C(C)C)no3)oc2c1C (centres unmarked) [NCGC00435047-01] | 6.68 µM
CC(=O)c1c(S)nc(-c2ccccc2)nc1N1CCN(C)CC1 [MLS000519428-01] | 5.96 µM
Cc1cc(NC(=O)c2cc(-c3ccco3)on2)nn1Cc1ccc(Cl)cc1 [MLS000087231-01] | 8.41 µM
COc1ccc(CCC(=O)N2Cc3ccccc3OC3(CCN(C)CC3)C2)cc1 [NCGC00456460-01] | 7.5 µM
CCc1ccc(Oc2c(C(F)(F)F)oc3c(CN4CCN(C)CC4)c(O)ccc3c2=O)cc1 [NCGC00101488-01] | 0.75 µM
Cc1noc(C)c1-c1cc2cc(CN(C)C)oc2c(NCc2cccnc2)n1 [NCGC00417547-01] | 1.22 µM
O=C(NCC1CCCN(Cc2cccc(-c3ccco3)c2)C1)c1cccs1 (centres unmarked) [NCGC00427501-01] | 6.68 µM
O=C1NCc2ccccc2CC12CCCCN2CC1CC=CCC1 (centres unmarked) [NCGC00377392-01] | 2.34 µM
O=C(NCCc1ccncc1)c1ccc(-c2nnc3ccc(NC(=O)C4CCC4)cn23)cc1 [NCGC00429902-01] | 2.99 µM
COc1ccc(CNC(=O)C2CCN(c3nc(-c4ccccc4)nc4c3CCC4)CC2)cc1 [MLS001120192-01] | 7.5 µM
COc1ccc(-c2c3c(nc4sc(C(=O)Nc5ccc(F)cc5)c(N)c24)CC(C)(C)CC3=O)cc1 [NCGC00100718-01] | 0.944 µM
O=C(NCCc1cccnc1)c1ccc(-c2nnc3ccc(NC(=O)C4CCC4)cn23)cc1 [NCGC00429899-01] | 6.68 µM
CCCC(O)c1nc2ccccc2n1CCCCOc1ccc(OC)cc1 (centres unmarked) [NCGC00119455-01] | 15 µM
